# Assays:
# [1] = tested on: VERPE (creeping speedwell); experiment: Pre-emergence herbicidal activity, cool season; type: in vivo, Veronica persicaria; details: lowest tested rate with 80% or greater inhibition; rates 300, 100, 30, 10 g/ha; about 14 days
# In short: (§1)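 GR80 values derive from percent inhibition relative to untreated plants, read roughly 14 days after sowing and pre-emergence soil-surface treatment (compound in 50:50 acetone/water; rates typically 10, 30, 100, 300 g/ha). Warm-season weeds grew at 30/21° C day/night, cool-season ones at 18/13° C; an asterisk marks activity without reaching 80% at the highest rate.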
# SINAR (wild mustard) = experiment: Pre-emergence herbicidal activity, cool season; type: in vivo, Sinapis arvensis; details: lowest tested rate with 80% or greater inhibition; rates 300, 100, 30, 10 g/ha; about 14 days
# In short: as §1
# [2] = tested on: LAMPU (purple deadnettle); experiment: Pre-plant incorporated (PPI) herbicidal activity, cool season; type: in vivo, Lamium purpureum; details: for Percent inhibition LAMPU: weed, PPI application; for PPI activity GR80, LAMPU: pre-plant incorporated, lowest tested rate with 80% or greater inhibition, about 14 days
# Experimental: (§2) In another set of tests, the pre-plant incorporated (PPI) activity of compounds of this invention was evaluated on the same species as for the pre-emergence tests described above. In the PPI tests the following procedure, designed to simulate PPI application, was used.
# (§3) A pre-prepared topsoil mixture (described above) was placed in a pot and compacted to a depth of 1.0 to 1.25 cm from the top of the pot. Seeds of each of several monocotyledonous and dicotyledonous annual plant species were placed on top of the soil. A sufficient quantity of soil to cover the seeds and level fill the pot was weighed into an open container. A known amount of the test compound was dissolved or suspended in an organic solvent and applied by spraying to this cover soil. The cover soil was thoroughly mixed to distribute the test compound throughout the cover soil, and was then applied as a cover layer over the seeds. Untreated soil was used as a cover layer for control pots. After treatment the plants were placed in a greenhouse where they received 0.64 cm of overhead irrigation. All subsequent watering consisted of a light overhead mist and/or subirrigation as needed for germination and growth. Tables 9 and 10 below relate to warm season plant species which were placed after pre-emergence treatment in a greenhouse with a 30/21° C. day/night temperature regime. Tables 11 and 12 below relates to cool season plant species placed after pre-emergence treatment in a greenhouse or growth chamber with an 18/13° C. day/night temperature regime. Only the compounds of Examples 1, 6, 8, 11, 13 and 15-20 were included in PPI tests.
# (§4) Approximately 14 days after planting and treating, the plants were observed and herbicidal efficacy recorded as percent inhibition by comparison with untreated plants.
# POROL (common purslane) = experiment: Pre-emergence herbicidal activity, warm season; type: in vivo, Portulaca oleracea; details: GR80 = lowest tested rate (300, 100, 30, 10 g/ha) with 80% or greater inhibition; approx. 14 days after treating; 30/21° C.
# In short: as §1
# PANDI (fall panicum) = experiment: Pre-plant incorporated (PPI) herbicidal activity, warm season; type: in vivo, Panicum dichotomiflorum; details: for Percent inhibition PANDI: PPI application; for PPI activity GR80, PANDI: pre-plant incorporated, lowest tested rate with 80% or greater inhibition, about 14 days
# Experimental: as §2, §3, §4
# [3] = tested on: AGRRE (quackgrass (seedling)); experiment: Pre-plant incorporated (PPI) herbicidal activity, cool season; type: in vivo, Elymus repens; details: for Percent inhibition AGRRE: weed, PPI application; for PPI activity GR80, AGRRE: pre-plant incorporated, lowest tested rate with 80% or greater inhibition, about 14 days
# Experimental: as §2, §3, §4
# SOLNI (black nightshade) = experiment: Pre-emergence herbicidal activity, warm season; type: in vivo, Solanum nigrum; details: GR80 = lowest tested rate (300, 100, 30, 10 g/ha) with 80% or greater inhibition; approx. 14 days after treating; 30/21° C.
# In short: as §1
# SETVI (green foxtail) = experiment: Post-emergence herbicidal activity, cool season; type: in vivo, Setaria viridis; details: abraded plants sprayed at 300, 100, 30 and 10 g/ha; about 14 days after treatment
# Experimental: (§5) In another set of tests, the post-emergence activity of compounds of this invention was evaluated on the cool season species listed above. The following procedure was used.
# (§6) A pre-prepared topsoil mixture (described above) was placed in a pot and compacted to a depth of 1.0 to 1.25 cm from the top of the pot. Seeds of each of several monocotyledonous and dicotyledonous annual plant species were placed on top of the soil. The seeds were covered with a mixture of 50% topsoil and 50% Rediearth™ in sufficient quantity to level-fill the pots. The pots were then placed on a greenhouse bench and subirrigated as needed.
# (§7) When plants growing from the seeds had emerged and reached a suitable growth stage for post-emergence treatment, typically 9 to 14 days after planting, above-ground parts of the plants were subjected to a pre-treatment involving abrasion to create greater opportunity for foliar uptake of subsequently applied compounds. Abrasion was performed using garnet 200w particles applied with a Sears Craftsman hand-held sandblaster operated at approximately 850 kPa (50 psig) pressure.
# (§8) A known amount of each test compound dissolved or suspended in an appropriate organic solvent was diluted with a 50:50 mix of acetone and water and applied to the plants by spraying with a standard spray nozzle in a spray volume of […] at a spray pressure of 511 kPa (30 psig). Only the compounds of Examples 1, 8-15 and 17-22 were included in post-emergence tests. Application rates for these compounds were 300, 100, 30 and 10 g/ha. Control plants were abraded but not sprayed.
# (§9) After treatment the plants were placed in a greenhouse with an 18/13° C. day/night temperature regime and were subsequently watered as needed for growth. Approximately 14 days after treatment, the plants were observed and herbicidal efficacy recorded as percent inhibition by comparison with control plants. GR80 values were assigned for each compound as described above for the pre-emergence tests.
# [4] = tested on: AGSST (creeping bentgrass); experiment: Post-emergence herbicidal activity, cool season; type: in vivo, Agrostis stolonifera; details: abraded plants sprayed at 300, 100, 30 and 10 g/ha; about 14 days after treatment
# Experimental: as §5, §6, §7, §8, §9
# [5] = tested on: AEGCY (jointed goatgrass); experiment: Post-emergence herbicidal activity, cool season; type: in vivo, Aegilops cylindrica; details: abraded plants sprayed at 300, 100, 30 and 10 g/ha; about 14 days after treatment
# Experimental: as §5, §6, §7, §8, §9
Structure (SMILES),"Pre-emergence activity GR80, VERPE [1] [g/ha]","Pre-emergence activity GR80, SINAR (SINAR (wild mustard))",Percent inhibition LAMPU ([2]; 30 g/ha) [%],Percent inhibition LAMPU ([2]; 100 g/ha) [%],Percent inhibition LAMPU ([2]; 300 g/ha) [%],Percent inhibition LAMPU ([2]; 900 g/ha) [%],Pre-emergence activity (GR80) POROL (POROL (common purslane)) [g/ha],Percent inhibition PANDI (PANDI (fall panicum); 30 g/ha) [%],Percent inhibition PANDI (PANDI (fall panicum); 100 g/ha) [%],Percent inhibition PANDI (PANDI (fall panicum); 300 g/ha) [%],Percent inhibition PANDI (PANDI (fall panicum); 900 g/ha) [%],Percent inhibition AGRRE ([3]; 30 g/ha) [%],Percent inhibition AGRRE ([3]; 100 g/ha) [%],Percent inhibition AGRRE ([3]; 300 g/ha) [%],Percent inhibition AGRRE ([3]; 900 g/ha) [%],Pre-emergence activity (GR80) SOLNI (SOLNI (black nightshade)) [g/ha],"Post-emergence activity GR80, SETVI (SETVI (green foxtail))","PPI activity GR80, LAMPU [2] [g/ha]",Percent inhibition LAMPU ([2]; 10 g/ha) [%],Percent inhibition PANDI (PANDI (fall panicum); 10 g/ha) [%],also measured
CCN(CC)C(=O)n1cnc(S(=O)(=O)C(F)(F)F)n1 [Example 2],10,30 g/ha,30,70,95,100,100,100,100,100,100,0,0,30,60,300,–,–,–,–,–
CCN(CC)C(=O)n1cnc(S(=O)(=O)C(F)(F)SCC(=O)OC)n1 [Example 11],100,100 g/ha,0,0,0,0,–,0,70,99,100,0,0,0,0,300,[empty],300,0,0,"PPI activity GR80, AGRRE [3]: * (activity observed, at least at highest rate, but <80% inhibition); Percent inhibition AGRRE ([3]; 10 g/ha): 0%; Post-emergence activity GR80, AGSST [4]: [empty]; Post-emergence activity GR80, AEGCY [5]: [empty]"
CCN(CC)C(=O)n1cnc(S(=O)(=O)C(F)(F)C(F)F)n1 [Example 16],100,100 g/ha,80,90,80,90,100,100,100,100,100,0,0,20,70,100,–,10,50,0,"PPI activity GR80, PANDI (PANDI (fall panicum)): 10 g/ha; PPI activity GR80, AGRRE [3]: 300 g/ha; Percent inhibition AGRRE ([3]; 10 g/ha): 0%"
CCN(CC)C(=O)n1cnc(S(=O)(=O)C(F)(F)Cl)n1 [Example 3],100,300 g/ha,60,95,100,100,100,80,100,100,100,20,50,80,95,100,–,–,–,–,–
CCN(CC)C(=O)n1cnc(S(=O)(=O)C(F)(F)C(F)(F)SC)n1 [Example 14],300,[empty],–,–,–,–,300,–,–,–,–,–,–,–,–,300,[empty],–,–,–,"Post-emergence activity GR80, AGSST [4]: 300 g/ha; Post-emergence activity GR80, AEGCY [5]: [empty]"
CCN(CC)C(=O)n1cnc(S(=O)(=O)C(F)(F)C(F)(F)Br)n1 [Example 4],10,30 g/ha,40,80,80,90,100,0,100,100,100,50,70,80,90,300,–,–,–,–,–
CCN(CC)C(=O)n1cnc(S(=O)(=O)C(F)(F)C(=O)c2ccccc2)n1 [Example 6],300,300 g/ha,–,–,–,–,–,–,–,–,–,–,–,–,–,–,–,300,–,–,"PPI activity GR80, PANDI (PANDI (fall panicum)): 100 g/ha; PPI activity GR80, AGRRE [3]: 300 g/ha"
CCN(CC)C(=O)n1cnc(S(=O)(=O)C(F)(F)SCc2ccccc2)n1 [Example 10],100,100 g/ha,0,–,0,50,–,50,100,100,100,0,0,0,50,300,[empty],–,0,0,"Percent inhibition AGRRE ([3]; 10 g/ha): 0%; Post-emergence activity GR80, AGSST [4]: [empty]; Post-emergence activity GR80, AEGCY [5]: [empty]"
CCN(CC)C(=O)n1cnc(S(=O)(=O)C(F)(F)SCCOC)n1 [Example 13],300,[empty],–,0,0,90,–,100,90,100,100,0,20,40,60,300,[empty],30,0,40,"PPI activity GR80, PANDI (PANDI (fall panicum)): 30 g/ha; PPI activity GR80, AGRRE [3]: * (activity observed, at least at highest rate, but <80% inhibition); Percent inhibition AGRRE ([3]; 10 g/ha): 0%; Post-emergence activity GR80, AGSST [4]: [empty]; Post-emergence activity GR80, AEGCY [5]: [empty]"

# Source: patent US6461997B1, “Triazole sulfones having herbicidal activity” (Monsanto Technology LLC, priority 1999, dated 2002)
